Results taken from patent US20240285630A1, “Methods and compositions for improving exercise performance” (MEZZION PHARMA CO., LTD., priority 2021, published 2024).
Several values for one entry are separate records, joined by “and”; a condition that tells them apart may be missing. Equal entries are not always repeated.

System: adolescents with Fontan physiology
Experiment: FUEL Trial cardiopulmonary exercise test (CPET), cycle ergometer ramp protocol
Type: in vivo, human
Conditions: for Change in VE/VCO2 at VAT: 26 week - baseline; for Peak VO2 (% change), difference in change (treatment - placebo): natural log transformed data
Text: The primary outcome was the change in oxygen consumption at peak exercise (max or peak VO2) from baseline to the 26-week visit. Secondary exercise outcomes included change in additional measures at maximal exertion, as well as change in measures of submaximal exercise at the ventilatory anaerobic threshold (VAT). The primary outcome for clinical secondary aims included change in myocardial performance index (MPI), an echocardiographically-derived measure of systolic and diastolic ventricular function, change in log-transformed reactive hyperemia index (InRHI), a PAT-derived measure of peripheral vascular function, and change in log-transformed serum BNP level. Safety was monitored through adverse event reports, which were collected according to a pre-specified protocol of study coordinator outreach, and through ad hoc patient and family communication with members of the study team at each site.
Baseline clinical testing completed before drug initiation included a blood draw to measure brain-type natriuretic peptide (BNP) level, a cardiopulmonary exercise test (CPET) using a standardized cycle ergometer ramp protocol, a standardized echocardiogram, and an assessment of peripheral vascular function using peripheral arterial tonometry (PAT) measured by finger cuff (EndoPAT; Itamar Medical, Israel). Participants who achieved maximal effort, defined as respiratory exchange ratio (RER)≥1.10 at peak exercise during CPET, were eligible for randomization and study drug initiation. […] End-of-study clinical testing included repeat measurement of serum BNP, CPET, echocardiogram, and PAT.
The primary analysis used the intention-to-treat population to evaluate the difference in the change in the primary outcome between treatment arms. This difference was assessed with an analysis of covariance (ANCOVA) with fixed factors for ventricular morphology (single left versus single right or mixed) and treatment group, with a continuous covariate of baseline max VO2. […] Secondary analyses included participants who successfully completed the protocol with measurable values at each of the secondary endpoints. Secondary outcomes of continuous data points were analyzed in the manner described for the primary outcome. In order to assess the generalizability of findings at the ventilatory anaerobic threshold, demographic and clinical characteristics were compared between participants without paired VO2 at VAT data and those comprising the remainder of the cohort.
The FUEL Trial was a Phase III clinical trial conducted at 30 centers. […] The primary outcome was the between group difference in change in oxygen consumption at peak exercise. Secondary outcomes included between group differences in changes in sub-maximal exercise at the ventilatory anaerobic threshold (VAT), the myocardial performance index (MPI), the natural log of the reactive hyperemia index (InRHI), and serum brain-type natriuretic peptide (BNP).
Baseline clinical testing completed before drug initiation included a blood draw to measure brain-type natriuretic peptide (BNP) level, a cardiopulmonary exercise test (CPET) using a standardized cycle ergometer ramp protocol (previously described in children and adolescents with Fontan physiology, Sleeper L A, Anderson P, Hsu D T, Mahony L, McCrindle B W, Roth S J, Saul J P, Williams R V, Geva T, Colan S D, Clark B J and Pediatric Heart Network I. Design of a large cross-sectional study to facilitate future clinical trials in children with the Fontan palliation. Am Heart J. 152(3):427-433 (September 2006), a standardized echocardiogram, and an assessment of peripheral vascular function using peripheral arterial tonometry (PAT) measured by finger cuff (EndoPAT; Itamar Medical, Israel). Participants who achieved maximal effort, defined as respiratory exchange ratio (RER)>1.10 at peak exercise during CPET, were eligible for randomization and study drug initiation. […]

[1] = baseline peak VO2 <80% predicted, N=251
[2] = baseline peak VO2 <80% predicted, N=301
[3] = baseline peak VO2 ≥80% predicted, N=66
[4] = excluding those with baseline peak VO2 ≥80% predicted, n=122
[5] = excluding those with baseline peak VO2 ≥80% predicted, n=150
[6] = post-hoc subgroup excluding baseline peak VO2 ≥80% of predicted
[7] = subgroup with baseline peak VO2 ≥80% of predicted, each treatment group

CCCOc1ccc(S(=O)(=O)NCCC2CCCN2C)cc1-c1nc2c(CCC)nn(C)c2c(=O)[nH]1 (centres unmarked) [Udenafil, udenafil] was tested, and the “Increase in peak VO2 (VO2 max), percent” value (87.5 mg twice daily, baseline to 26-week, ITT) was 2.8%, the “Increase in peak VO2 (VO2 max), unindexed” value (87.5 mg twice daily, baseline to 26-week, ITT n=200, p=0.071 vs placebo) was 44 mL/min and 44 ± 245 mL/min and the “Anaerobic threshold oxygen consumption indexed to weight, 26-week” value (26-week value, mean ± SD, n=185) was 18.20 ± 4.51 (185) mL/kg/min. For the same molecule, the “Peak exercise oxygen consumption indexed to weight, 26-week” value (26-week value, mean ± SD, n=200) was 27.61 ± 6.87 (200) mL/kg/min, the “Number needed to treat (NNT) for an increase in peak VO2” value (ITT analysis) was 10 and the “Patients with an increase in peak VO2, number” value (ITT analysis without imputation of missing data) was 86. For the same molecule, the “Patients with an increase in peak VO2, percent” value (ITT analysis without imputation of missing data, p=0.075 vs placebo) was 46%, the “Peak VO2 indexed to weight, change 26 week - baseline” value (all participants (ITT) n=200, p=0.092 vs placebo) was −0.23 ± 4.06 (200) mL/kg/min and −0.23 mL/kg/min and the “VO2 at VAT indexed to weight, change 26 week - baseline” value (all participants n=170, p=0.012 vs placebo) was −0.07 ± 3.0 (170) mL/kg/min and −0.07 mL/kg/min. For the same molecule, the “% Predicted Peak VO2, 26 week - baseline” value (all participants n=189) was −0.90, the “Peak VO2 (% change, ml/kg/min), 26 week - baseline” value (all participants n=200) was −1.0% and the “Change in VE/VCO2 at VAT” value (all participants) was −0.76. The “Change in VE/VCO2 at VAT” value (all participants, listed as udenafil) was −0.8, the “Change in work rate at VAT” value (all participants, baseline to 26-week) was 3.46 Watts and the “Work at VAT, difference in change (treatment - placebo)” value (baseline peak VO2 <80% predicted, N=243) was 3.54 watts. For the same molecule, the “VE/VCO2 at VAT, difference in change (treatment - placebo)” value [1] was −0.66, the “VO2 at VAT, difference in change (treatment - placebo)” value [1] was 0.0462 L/h/kg and the “Peak VO2, difference in change (treatment group - placebo group)” value (“Peak VO2, difference in change” for short) [2] was 0.0672 L/h/kg. The “Peak VO2 (% change), difference in change (treatment - placebo)” value [2] was 5.0%, the “Peak VO2, difference in change” value (baseline peak VO2 ≥80% predicted (Super Fontan), N=77) was -0.0534 L/h/kg and the “Peak VO2, difference in change” value (baseline peak VO2 ≥80% predicted (Super Fontan), N=77, listed as udenafil) was “no significant udenafil treatment effect”. The “VE/VCO2 at VAT, difference in change (treatment - placebo)” value [3] was −1.18, the “VO2 at VAT, difference in change (treatment - placebo)” value [3] was 0.0228 L/h/kg and the “Work at VAT, difference in change (treatment - placebo)” value [3] was 3.15 watts. The “Peak VO2 (% change), difference in change (treatment - placebo)” value (baseline peak VO2 ≥80% predicted, N=77) was −2.39%, the “Decrease in VE/VCO2 at VAT, percent” value (baseline to 26-week) was 2.1% and the “Improvement in work rate at VAT, percent” value (baseline to 26-week) was 5.5% and 5.2%. The “Decrease in VE/VCO2 at VAT (improved ventilatory efficiency)” value (baseline to 26-week, given as size of decrease) was 0.8, the “Peak exercise heart rate, change” value (baseline to 26-week, mean ± SD) was −1.4 ± 11 bpm and the “Peak exercise minute ventilation, change” value (baseline to 26-week, mean ± SD) was 1.2 ± 14 L/min. For the same molecule, the “Peak exercise oxygen saturation, change” value (baseline to 26-week, mean ± SD) was 0.4 ± 3.4%, the “Peak exercise respiratory rate, change” value (baseline to 26-week, mean ± SD) was −1.1 ± 10 breaths/min and the “Peak exercise minute ventilation, change” value (baseline to 26-week, mean ± SD, listed as udenafil) was “no difference in the change in minute ventilation between groups”. For the same molecule, the “Work at VAT, 26 week - baseline” value (excluding those with baseline peak VO2 ≥80% predicted, n=119) was 3.80 watts, the “VE/VCO2 at VAT, 26 week - baseline” value [4] was −0.61 and the “VO2 at VAT, 26 week - baseline” value [4] was 0.0066 L/h/kg. For the same molecule, the “% Predicted Peak VO2, 26 week - baseline” value [5] was 0.43, the “Peak VO2 (% change, ml/kg/min), 26 week - baseline” value [5] was 0.4% and the “Peak VO2, 26 week - baseline” value [5] was 0.0138 L/h/kg. The “Number needed to treat (NNT) for an increase in peak VO2” value [6] was 8.2, the “Patients with an increase in peak VO2, number” value [6] was 75 and the “Patients with an increase in peak VO2, percent” value (post-hoc subgroup excluding baseline peak VO2 ≥80% of predicted, p=0.037 vs placebo) was 50%. For the same molecule, the “Patients with negative change in peak VO2, percent” value [7] was 71 to 72% and the “Patients with positive change in peak VO2, percent” value [7] was 28 to 29%.
